Source: patent US8158657B2, “Heterocycles substituted pyridine derivatives and antifungal agent containing thereof” (Eisai R&D Management Co., Ltd., priority 2005, dated 2012)
Values after ≈ are worked out from the molar mass of the structure shown.

Tests used:
[1] = tested on: C. albicans CAF2-1 strain; assay: Anti-Candida activity, MIC measurement; type: cell-based; conditions: CAF21STRAIN, C. albicans CAF2-1, RPMI1640, 42-48 hours at 35° C., visual inspection, read-out: Anti-Candida Activity (minimum inhibitory concentration, MIC)
Method in brief: (§1)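 C. albicans CAF2-1 was grown 48 h at 30° C. in SDB and diluted in RPMI1640 to 1.2×10^3 cells/mL. Frozen A. fumigatus Tsukuba was diluted to 4.5×10^3 cells/mL. Compounds, two-fold serially diluted in DMSO from 2.5 mg/mL, were cultured aerobically with fungi for 42-48 h at 35° C.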

[2] = tested on: C. albicans E81022 strain; assay: Experimental systemic candidal infection model in mice; type: in vivo; conditions: peroral, 3 times every 4 hours, female ICR mice, observed until 14 days after infection
Description: A standing culture of C. albicans E81022 strain was carried out for 48 hours at 30° C. in sabouraud dextrose agar medium (SDA), the recovered fungal cells were suspended in sterilized physiological saline. By counting the fungal number on cytometry plate, the suspension was diluted to 2×10^7 cells/mL with sterilized physiological saline to serve fungal inoculum.
The fungal inoculum was used in the amounts of 0.2 mL to inoculate 4.5 to 5.5 week-old female ICR mice in the tail vein (4×10^6 cells/mouse).
From 0.5 to 1 hour after fungal inoculation, 0.2 mL of agent solution (dissolved or suspended in sterilized physiological saline containing 6.5% dimethyl sulfoxide and 3.5% Tween 80) was administered into the stomach using a peroral probe, 3 times every 4 hours. The agent concentration was 2.5 mg/kg or 10 mg/kg, and the number of animals in one group was 5 animals.
The protective effect was determined by observing life/death until 14 days after infection and calculating the mean survival days.

[3] = tested on: A. fumigatus Tsukuba strain; assay: Anti-Aspergillus activity, MIC measurement; type: cell-based; conditions: RPMI1640, 42-48 hours at 35° C., visual inspection, read-out: Anti-Aspergillus Activity (minimum inhibitory concentration, MIC)
Method in brief: as §1

SMILES | MIC [1] | Mean Survival Days ([2]; 2.5 mg/kg) | Mean Survival Days ([2]; 10 mg/kg) | MIC [3]
Nc1ccc(-c2cc(Cc3ccc(CNc4ccccc4)cc3)no2)c(N)n1 [Example 133, 3-(3-(4-Phenylaminomethyl-benzyl)-isoxazol-5-yl)-pyridin-2,6-diamine] | 0.2 µg/mL (≈ 0.538 µM) | 7.0 days | 13.4 days | 0.39 µg/mL (≈ 1.05 µM)
Cc1ccnc(OCc2ccc(Cc3cc(-c4ccc(N)nc4N)on3)cc2)c1 [Example 102, 3-(3-(4-(4-Methyl-pyridin-2-yloxymethyl)-benzyl)-isoxazol-5-yl)-pyridin-2,6-diamine] | 0.2 µg/mL (≈ 0.516 µM) | 13.2 days | 13.0 days | 0.39 µg/mL (≈ 1.01 µM)
CCCCOCc1ccc(Cc2cc(-c3ccc(N)nc3N)on2)cc1 [Example 16, 3-(3-(4-Butoxymethyl-benzyl)-isoxazol-5-yl)-pyridin-2,6-diamine] | 0.39 µg/mL (≈ 1.11 µM) | 4.8 days | 12.8 days | 0.39 µg/mL (≈ 1.11 µM)
Nc1ccc(-c2cc(Cc3ccc(Oc4ccccc4)cc3)no2)c(N)n1 [Example 17, 3-(3-(4-Phenoxy-benzyl)-isoxazol-5-yl)-pyridin-2,6-diamine] | 0.78 µg/mL (≈ 2.18 µM) | 8.2 days | 13.0 days | 0.2 µg/mL (≈ 0.558 µM)
Nc1ncccc1-c1cc(Cc2ccc(OCc3cccc(Cl)n3)cc2)no1 [Example 52, 3-(3-(4-(6-Chloro-pyridin-2-ylmethoxy)-benzyl)-isoxazol-5-yl)-pyridin-2-ylamine] | 0.39 µg/mL (≈ 0.993 µM) | 10.6 days | 13.4 days | 0.39 µg/mL (≈ 0.993 µM)
Nc1ncccc1-c1cnn(Cc2ccc(OCc3ccccn3)cc2)c1 [Example 192, 3-(1-(4-(Pyridin-2-ylmethoxy)-benzyl)-1H-pyrazol-4-yl)-pyridin-2-ylamine] | 0.39 µg/mL (≈ 1.09 µM) | 3.2 days | 9.4 days | 1.56 µg/mL (≈ 4.36 µM)
Cc1cccc(OCc2ccc(Cc3cc(-c4ccc(N)nc4N)on3)cc2)n1 [Example 15, 3-(3-(4-(6-Methyl-pyridin-2-yloxymethyl)-benzyl)-isoxazol-5-yl)-pyridin-2,6-diamine] | 0.2 µg/mL (≈ 0.516 µM) | 10.8 days | 12.6 days | 0.39 µg/mL (≈ 1.01 µM)
Nc1ncccc1-c1cc(Cc2ccc(OCc3ccc(F)cn3)cc2)no1 [Example 41, 3-(3-(4-(5-Fluoro-pyridin-2-ylmethoxy)-benzyl)-isoxazol-5-yl)-pyridin-2-ylamine] | 0.39 µg/mL (≈ 1.04 µM) | 11.4 days | 11.8 days | 0.2 µg/mL (≈ 0.531 µM)
Nc1ncccc1-c1cc(Cc2ccc(OCc3cccc(F)n3)cc2)no1 [Example 45, 3-(3-(4-(6-Fluoro-pyridin-2-ylmethoxy)-benzyl)-isoxazol-5-yl)-pyridin-2-ylamine] | 0.39 µg/mL (≈ 1.04 µM) | 10.6 days | 10.8 days | 0.2 µg/mL (≈ 0.531 µM)
Nc1ccc(-c2cc(Cc3ccc(Oc4cccc(F)c4)nc3)no2)c(N)n1 [Example 131, 3-(3-(6-(3-Fluoro-phenoxy)-pyridin-3-ylmethyl)-isoxazol-5-yl)-pyridin-2,6-diamine] | 0.2 µg/mL (≈ 0.53 µM) | 12.6 days | 12.8 days | 0.2 µg/mL (≈ 0.53 µM)
Cc1ccc(Cc2ccc(Cc3cc(-c4ccc(N)nc4N)on3)cc2)o1 [Example 105, 3-(3-(4-(5-Methyl-furan-2-ylmethyl)-benzyl)-isoxazol-5-yl)-pyridin-2,6-diamine] | 0.2 µg/mL (≈ 0.555 µM) | 5.4 days | 12.8 days | 0.2 µg/mL (≈ 0.555 µM)
Nc1ncccc1-c1cc(Cc2ccc(COc3ccccn3)cc2)no1 [Example 2, 3-(3-(4-(Pyridin-2-yloxymethyl)-benzyl)-isoxazol-5-yl)-pyridin-2-ylamine] | 0.05 µg/mL (≈ 0.14 µM) | 13.2 days | 14.0 days | 0.2 µg/mL (≈ 0.558 µM)
Cc1ccnc(COc2ccc(Cc3cc(-c4cccnc4N)on3)cc2)c1 [Example 11, 3-(3-(4-(4-Methyl-pyridin-2-ylmethoxy)-benzyl)-isoxazol-5-yl)-pyridin-2-ylamine] | 0.1 µg/mL (≈ 0.269 µM) | 8.2 days | 13.6 days | 0.39 µg/mL (≈ 1.05 µM)
